Patent US20090226527A1, “Particulate-stabilized injectable pharmacutical compositions of posaconazole” (priority 2004, published 2009)
Values after ≈ are worked out from the molar mass of the structure shown. Like-named read-outs stand apart in the source and are kept apart here.

Tests used:
aspergillosis = test: Orally administered Posaconazole: plasma Cmax/Cavg by quartile and response rate for aspergillosis; format: in vivo, patients
Text: (§1) In order to determine the target dosing for intravenous administration, it was necessary to determine a target range for mean Cavg and mean Cmax. Previous studies on orally administered Posaconazole are instructive in this regard.
(§2) At the same time, posaconazole has a long half-life and a large volume of distribution that results in sustained plasma levels and extensive penetration into body tissues with a likely accumulation in tissues. […] Thus, it can be inferred that posaconazole's long half-life and large volume of distribution results in sustained plasma and tissue levels allowing for safer and better tolerated pharmacokinetic behavior.

[1] = as above; format: in vivo, patients; details: human, plasma, po, 800 mg/day
Text: as §1, §2

[2] = Rising Multiple Dose Study: plasma pharmacokinetics, safety, relative bioavailability of POS IV vs POS oral suspension; format: in vivo, human
Experimental: A rising, multiple dose assessment of the safety, tolerability, and pharmacokinetics of intravenous Posaconazole in healthy subjects was also conducted. The pharmacokinetic objectives of the study were two-fold: first, to determine the single-dose and multiple-dose pharmacokinetic (PK) profiles of POS IV in healthy subjects; and second, to determine the relative bioavailability of POS IV vs POS oral suspension administered under fed conditions. The formulation used in this study is that of Example 8.
Plasma obtained from blood samples was analyzed for POS using a validated LC-MS/MS method. Plasma pharmacokinetic parameters were determined. Safety was assessed by ECGs, clinical laboratory tests, vital signs, and adverse event monitoring.

[3] = tested on: infectious agents (strains tested); test: organism not typed; format: cell-based

For CCC([C@@H](C)O)n1ncn(-c2ccc(N3CCN(c4ccc(OC[C@@H]5CO[C@@](Cn6cncn6)(c6ccc(F)cc6F)C5)cc4)CC3)cc2)c1=O (stereo partly shown) [Posaconazole], the “Response (response rate for aspergillosis)” value (from here on “Response”) (aspergillosis; Quartile 1) was 24%, the “Plasma Cavg, mean” value (aspergillosis; Quartile 1, n = 17) was 134 ng/mL and the “Response” value (aspergillosis; Quartile 2) was 53%. The “Plasma Cavg, mean” value (aspergillosis; Quartile 2, n = 17) was 411 ng/mL, the “Response” value (aspergillosis; Quartile 3) was 53% and the “Plasma Cavg, mean” value (aspergillosis; Quartile 3, n = 17) was 719 ng/mL. The “Response” value (aspergillosis; Quartile 4) was 71%, the “Plasma Cavg, mean” value (aspergillosis; Quartile 4, n = 16) was 1250 ng/mL and the Cmax ([1]; Quartile 1, n = 17) was 142 ng/mL. The Cmax ([1]; Quartile 2, n = 17) was 467 ng/mL, the Cmax ([1]; Quartile 3, n = 17) was 852 ng/mL and the Cmax ([1]; Quartile 4, n = 16) was 1480 ng/mL. For the same compound, the “Dose proportionality of exposure (Cmax and AUC)” value ([2]; 100- to 400-mg range) was “approximately dose proportional”, the Safety and tolerability ([2]; healthy subjects, 100-400 mg) was “safe and well tolerated” and the “Daily dosing needed to achieve steady-state” value ([2]; human, in vivo) was 6 to 7 days. For the same compound, the clearance ([2]; human, in vivo, Mean systemic clearance at steady-state) was 90 to 93.3 mL/min, the clearance ([2]; human, in vivo, Mean systemic clearance, single-dose administration on Day 1) was 137 to 192 mL/min and the half-life ([2]; human, in vivo, Single-dose half-life) was 26 to 29 h. The half-life ([2]; human, in vivo, plasma, read-out: Mean steady-state terminal half-life) was 33 to 37 h, the MIC ([3]; Absidia spp, read-out: Geometric Mean MIC) was 0.177 µg/mL (≈ 0.253 µM) and the MIC ([3]; Absidia spp, read-out: MIC[90]) was 0.031 to 0.5 µg/mL (≈ 0.0442 to 0.713 µM). It also gave an MIC ([3]; Alternaria spp, read-out: Geometric Mean MIC) of 0.101 µg/mL (≈ 0.144 µM), an MIC ([3]; Alternaria spp, read-out: MIC[90]) of 0.25 µg/mL (≈ 0.357 µM) and an MIC ([3]; Apophysomyces spp, read-out: Geometric Mean MIC) of 0.34 µg/mL (≈ 0.485 µM). It also gave an MIC ([3]; Apophysomyces spp, read-out: MIC[90]) of 0.031 to 4 µg/mL (≈ 0.0442 to 5.71 µM), an MIC ([3]; Arthroderma terrestre, Trichophyton terrestre, read-out: Geometric Mean MIC) of 0.125 µg/mL (≈ 0.178 µM) and an MIC ([3]; Arthroderma terrestre, Trichophyton terrestre, read-out: MIC[90]) of 0.125 µg/mL (≈ 0.178 µM). It also gave an MIC ([3]; Aspergillus flavus, read-out: Geometric Mean MIC) of 0.079 µg/mL (≈ 0.113 µM), an MIC ([3]; Aspergillus flavus, read-out: MIC[90]) of 0.25 µg/mL (≈ 0.357 µM) and an MIC ([3]; Aspergillus fumigatus, read-out: Geometric Mean MIC) of 0.118 µg/mL (≈ 0.168 µM). It also gave an MIC ([3]; Aspergillus fumigatus, read-out: MIC[90]) of 0.5 µg/mL (≈ 0.713 µM), an MIC ([3]; Aspergillus nidulans, read-out: Geometric Mean MIC) of 0.055 µg/mL (≈ 0.0785 µM) and an MIC ([3]; Aspergillus nidulans, read-out: MIC[90]) of 0.25 µg/mL (≈ 0.357 µM). It also gave an MIC ([3]; Aspergillus niger, read-out: Geometric Mean MIC) of 0.195 µg/mL (≈ 0.278 µM), an MIC ([3]; Aspergillus niger, read-out: MIC[90]) of 0.5 µg/mL (≈ 0.713 µM) and an MIC ([3]; Aspergillus sydowii, read-out: Geometric Mean MIC) of 0.177 µg/mL (≈ 0.253 µM). It also gave an MIC ([3]; Aspergillus sydowii, read-out: MIC[90]) of 0.031 to 0.5 µg/mL (≈ 0.0442 to 0.713 µM), an MIC ([3]; Aspergillus terreus, read-out: Geometric Mean MIC) of 0.052 µg/mL (≈ 0.0742 µM) and an MIC ([3]; Aspergillus terreus, read-out: MIC[90]) of 0.25 µg/mL (≈ 0.357 µM). The MIC ([3]; Aspergillus ustus, read-out: Geometric Mean MIC) was 1.64 µg/mL (≈ 2.34 µM), the MIC ([3]; Aspergillus ustus, read-out: MIC[90]) was 0.25 to 8 µg/mL (≈ 0.357 to 11.4 µM) and the MIC ([3]; Bipolaris spp, read-out: Geometric Mean MIC) was 0.354 µg/mL (≈ 0.505 µM). For the same compound, the MIC ([3]; Bipolaris spp, read-out: MIC[90]) was 0.125 to 1 µg/mL (≈ 0.178 to 1.43 µM), the MIC ([3]; Bjerkandera adusta, read-out: Geometric Mean MIC) was 0.25 µg/mL (≈ 0.357 µM) and the MIC ([3]; Bjerkandera adusta, read-out: MIC[90]) was 0.25 µg/mL (≈ 0.357 µM). It also gave an MIC ([3]; Blastomyces dermatitidis, read-out: Geometric Mean MIC) of 0.053 µg/mL (≈ 0.0756 µM), an MIC ([3]; Blastomyces dermatitidis, read-out: MIC[90]) of 0.125 µg/mL (≈ 0.178 µM) and an MIC ([3]; Candida albicans, read-out: Geometric Mean MIC) of 0.037 µg/mL (≈ 0.0528 µM). For the same compound, the MIC ([3]; Candida albicans, read-out: MIC[90]) was 0.25 µg/mL (≈ 0.357 µM), the MIC ([3]; Candida dubliniensis, read-out: Geometric Mean MIC) was 0.062 µg/mL (≈ 0.0885 µM) and the MIC ([3]; Candida dubliniensis, read-out: MIC[90]) was 0.25 µg/mL (≈ 0.357 µM). The MIC ([3]; Candida tropicalis, read-out: Geometric Mean MIC) was 0.081 µg/mL (≈ 0.116 µM), the MIC ([3]; Candida tropicalis, read-out: MIC[90]) was 0.25 µg/mL (≈ 0.357 µM) and the MIC ([3]; Clavispora lusitaniae, Candida lusitaniae, read-out: Geometric Mean MIC) was 0.048 µg/mL (≈ 0.0685 µM). It also gave an MIC ([3]; Clavispora lusitaniae, Candida lusitaniae, read-out: MIC[90]) of 0.125 µg/mL (≈ 0.178 µM), an MIC ([3]; Coccidioides immitis, read-out: Geometric Mean MIC, Coccidioides immitis) of 0.304 µg/mL (≈ 0.434 µM) and an MIC ([3]; Coccidioides immitis, read-out: MIC[90], Coccidioides immitis) of 1 µg/mL (≈ 1.43 µM). It also gave an MIC ([3]; Cryptococcus neoformans, read-out: Geometric Mean MIC) of 0.119 µg/mL (≈ 0.17 µM), an MIC ([3]; Cryptococcus neoformans, read-out: MIC[90]) of 0.25 µg/mL (≈ 0.357 µM) and an MIC ([3]; Curvularia spp, read-out: Geometric Mean MIC) of 0.072 µg/mL (≈ 0.103 µM). It also gave an MIC ([3]; Curvularia spp, read-out: MIC[90]) of 0.031 to 0.125 µg/mL (≈ 0.0442 to 0.178 µM), an MIC ([3]; Debaryomyces hansenii, Candida famata, read-out: Geometric Mean MIC) of 0.125 µg/mL (≈ 0.178 µM) and an MIC ([3]; Debaryomyces hansenii, Candida famata, read-out: MIC[90]) of 0.5 µg/mL (≈ 0.713 µM). The MIC ([3]; Diutina rugosa, Candida rugosa, read-out: Geometric Mean MIC) was 0.039 µg/mL (≈ 0.0557 µM), the MIC ([3]; Diutina rugosa, Candida rugosa, read-out: MIC[90]) was 0.5 µg/mL (≈ 0.713 µM) and the MIC ([3]; Dujonia zeylanoides, Candida zeylanoides, read-out: Geometric Mean MIC) was 0.031 µg/mL (≈ 0.0442 µM). For the same compound, the MIC ([3]; Dujonia zeylanoides, Candida zeylanoides, read-out: MIC[90]) was 0.008 to 0.25 µg/mL (≈ 0.0114 to 0.357 µM), the MIC ([3]; Epidermophyton floccosum, read-out: Geometric Mean MIC) was 0.029 µg/mL (≈ 0.0414 µM) and the MIC ([3]; Epidermophyton floccosum, read-out: MIC[90]) was 0.125 µg/mL (≈ 0.178 µM). The MIC ([3]; Exophiala dermatidis, read-out: Geometric Mean MIC) was 0.125 µg/mL (≈ 0.178 µM), the MIC ([3]; Exophiala dermatidis, read-out: MIC[90]) was 0.125 µg/mL (≈ 0.178 µM) and the MIC ([3]; Exophiala dermatitidis, Wangiella dermatitidis, read-out: Geometric Mean MIC) was 0.088 µg/mL (≈ 0.126 µM). It also gave an MIC ([3]; Exophiala dermatitidis, Wangiella dermatitidis, read-out: MIC[90]) of 0.063 to 0.125 µg/mL (≈ 0.0899 to 0.178 µM), an MIC ([3]; Exophiala jeanselmei, read-out: Geometric Mean MIC) of 0.287 µg/mL (≈ 0.41 µM) and an MIC ([3]; Exophiala jeanselmei, read-out: MIC[90]) of 0.5 µg/mL (≈ 0.713 µM). For the same compound, the MIC ([3]; Exophiala moniliae, read-out: Geometric Mean MIC) was 0.016 µg/mL (≈ 0.0228 µM).
